Experimental data as given in patent publication US20190218508A1, “METHODS OF CELL SEPARATION” (CELLS4LIFE GROUP LLP, priority 2013, published 2019).

Each compound was assayed on erythrocytes (assay: Visual separation (sedimentation) of erythrocyte and nucleated cell fractions of blood samples). Conditions: Example 4; whole blood 1:1 with PBS composition of 2.5% Dextran 70 plus substance at 1-5%; 30 minutes room temperature.
Assay type: cell-based
Experimental: Umbilical cord blood was collected into standard Baxter 250 ml (nominal) blood bags containing 35 ml of a citrate phosphate dextrose adenine (CPDA) anticoagulant solution.
A solution containing dextran and a further constituent selected from dimethyl sulphoxide (DMSO), dimethyl glycine (DMG), L-valine, L-proline, β-alanine, leucine, isoleucine and glycine, in phosphate-buffered saline (PBS), was prepared. This solution was added to a blood sample at a ratio of 1:1, this was then mixed thoroughly. Separation of the erythrocyte and nucleated cell fractions took place at room temperature within a time period of 15 or 30 minutes. […]
Whole blood samples were mixed with 1:1 with PBS compositions comprising 2.5% Dextran 70 plus DMSO, L-valine, L-proline, β-alanine, leucine, isoleucine, glycine and DMG. Each of the amino acids and the DMSO were tested at concentration levels of 1%, 1.5%, 2%, 2.5%, 3%, 3.5%, 4%, 4.5% and 5% in the PBS composition. After mixing, each sample was left for 30 minutes at room temperature. […]

| Structure (SMILES) | separation of whole blood |
| --- | --- |
| CC[C@H](C)[C@H](N)C(=O)O [isoleucine] | almost total inactivity |
| CC(C)[C@H](N)C(=O)O [L-valine] | performed better than DMG |
| NCC(=O)O [glycine] | almost total inactivity |
| O=C(O)[C@@H]1CCCN1 [L-proline] | did very little |
| NCCC(=O)O [β-alanine] | did very little |
| CC(C)C[C@H](N)C(=O)O [leucine] | almost total inactivity |

Same assay, conditions: Example 4; with 2.5% Dextran 70

| Structure (SMILES) | order from best to worst of each substance at the separation |
| --- | --- |
| CC[C@H](C)[C@H](N)C(=O)O [isoleucine] | DMSO>L-valine>DMG>L-proline>β-alanine>Leucine/isoleucine/glycine |
| CC(C)[C@H](N)C(=O)O [L-valine] | DMSO>L-valine>DMG>L-proline>β-alanine>Leucine/isoleucine/glycine |
| NCC(=O)O [glycine] | DMSO>L-valine>DMG>L-proline>β-alanine>Leucine/isoleucine/glycine |
| O=C(O)[C@@H]1CCCN1 [L-proline] | DMSO>L-valine>DMG>L-proline>β-alanine>Leucine/isoleucine/glycine |
| NCCC(=O)O [β-alanine] | DMSO>L-valine>DMG>L-proline>β-alanine>Leucine/isoleucine/glycine |
| C[S+](C)[O-] [DMSO, dimethyl sulphoxide] | DMSO>L-valine>DMG>L-proline>β-alanine>Leucine/isoleucine/glycine |
| CN(C)CC(=O)O [DMG, dimethyl glycine] | DMSO>L-valine>DMG>L-proline>β-alanine>Leucine/isoleucine/glycine |
| CC(C)C[C@H](N)C(=O)O [leucine] | DMSO>L-valine>DMG>L-proline>β-alanine>Leucine/isoleucine/glycine |

Same assay, conditions: dextran 70 Mw final 2.5% + substance final 2.5% w/v; after 30 minutes; data not shown

| Structure (SMILES) | separation of erythrocytes and nucleated cells |
| --- | --- |
| CC[C@H](C)[C@H](N)C(=O)O [isoleucine] | little if any separation |
| CC(C)[C@H](N)C(=O)O [L-valine] | clear separation |
| NCC(=O)O [glycine] | little if any separation |
| O=C(O)[C@@H]1CCCN1 [L-proline] | little if any separation |
| NCCC(=O)O [β-alanine] | little if any separation |
| CN(C)CC(=O)O [DMG, dimethyl glycine] | clear separation |
| CC(C)C[C@H](N)C(=O)O [leucine] | little if any separation |

Same assay, conditions: dextran 500 Mw final 2.5% w/v + DMSO final 1% to 5% v/v; after 15 minutes and 30 minutes

| Structure (SMILES) | separation of erythrocytes and nucleated cells |
| --- | --- |
| C[S+](C)[O-] [DMSO, dimethyl sulphoxide] | clear separation |

Same assay, conditions: umbilical cord blood 1:1; dextran 500 Mw final 2.5% w/v + DMSO final 2% or 2.5% v/v; 30 minutes

| Structure (SMILES) | separation of the erythrocytes from the nucleated cells |
| --- | --- |
| C[S+](C)[O-] [DMSO, dimethyl sulphoxide] | clear separation |
